Patent US20130273182A1, “A Herbal Extract for Treating Fatty Liver Disease and a Medication Thereof” (priority 2012, published 2013)

Assay: DPPH free radical elimination test
Assay type: biochemical
Conditions: 10 mg/ml sample, 0.1 mM DPPH, room temperature 30 minutes, OD 517 nm
Procedure: Trial (A): DPPH Free Radical Elimination Test Referring to TABLE 1, there are six groups (A0) to (A5) to test, wherein the group (A0) comprising 10 mg/ml of ascorbic acid, and other five groups comprising extract of a dry Andrographis paniculata sample, a dry Acanthopanax senticosus sample or a combination of dry Andrographis paniculata sample and dry Acanthopanax senticosus sample in various weight ratios respectively. The group (A1) is a liquid extract obtained by extracting 4 kg of dry Andrographis paniculata sample with 1 liter of 95% ethanol. The group (A2) is a liquid extract obtained by extracting 4 kg of dry Acanthopanax senticosus sample with 1 liter of 95% ethanol. The group (A3) is a liquid extract obtained by extracting 4 kg of dry Andrographis paniculata sample and dry Acanthopanax senticosus sample in a weight ratio of 1:1 with 1 liter of 95% ethanol. The group (A4) is a liquid extract obtained by extracting 4 kg of dry Andrographis paniculata and dry Acanthopanax senticosus in a weight ratio of 1:2 with 1 liter of 95% ethanol. The group (A5) is a liquid extract obtained by extracting 4 kg of dry Andrographis paniculata and dry Acanthopanax senticosus in a weight ratio of 1:3 with 1 liter of 95% ethanol. […] The 6 samples are analyzed in the DPPH free radical elimination ability. […] DPPH elimination rates of each sample are further calculated by using Formula I. [formula]

## O=C1O[C@H]([C@@H](O)CO)C(O)=C1O [ascorbic acid]
  Percentage of DPPH elimination (%): 96.4 ± 2.7%
